Experimental data published in PMC10253401, “BS148 Reduces the Aggressiveness of Metastatic Melanoma via Sigma-2 Receptor Targeting” (International Journal of Molecular Sciences, 2023).

Biological target: T1, sigma-2 receptor (S2R) (Homo sapiens, UniProt Q5BJF2)
T1 construct: gene TMEM97
Assay: radioligand displacement ([3H]-ditolylguanidine, […], with […] (+)pentazocine to mask S1R)
Assay type: binding

T1 sequence (Q5BJF2 whole entry): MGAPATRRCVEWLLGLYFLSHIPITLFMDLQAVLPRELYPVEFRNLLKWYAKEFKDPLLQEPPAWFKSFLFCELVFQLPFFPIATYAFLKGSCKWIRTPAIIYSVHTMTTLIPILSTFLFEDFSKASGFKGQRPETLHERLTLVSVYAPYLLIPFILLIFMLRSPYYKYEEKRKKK

SMILES: O=C(CCCCCNc1ccc([N+](=O)[O-])c2nonc12)Oc1ccc(CC2CCN(CC3CSC4(CCCCC4)S3)CC2)cc1 (stereo not shown) [BS148-fluo, 4-((1-((1,4-dithiaspiro[4.5]decane-2-yl)methyl)piperidin-4-yl)methyl)phenyl-6-((7-nitrobenzo[c][1,2,5]oxadiazol-4-yl)amino)hexanoate]
- pKi S2R ^a ± SD: 7.00 ± 0.11 pKi
